Laboratory results from patent US11820720B2, “3-(5-substituted-4-oxoquinazolin-3(4H)-yl)-3-deuteropiperidine-2,6-dione derivatives and compositions comprising and methods of using the same” (DeuteRx, LLC, priority 2013, dated 2023).

Tests used:
[1] = In vitro stability in human plasma at 37° C. (enantiomerization, D/H exchange, degradation); type: in vitro ADME
Experimental: (§1) (+)- and (−)-3-(5-Amino-2-methyl-4-oxoquinazolin-3(4H)-yl)-piperidine-2,6-dione and rac-3-(5-amino-2-methyl-4-oxoquinazolin-3(4H)-yl)-(3-^2H)-piperidine-2,6-dione (87% deuterium content at the C3-position and no detectable deuterium at the C5-position, 50:50 racemic mixture of (+)- and (−)-deuterated enantiomers) were incubated in CD-1 mouse plasma (K3EDTA as anticoagulant) or human plasma (K3EDTA as anticoagulant) at 37° C. in duplicates. Aliquots were removed at t=0, 0.5, 1, 2, 6, 8, 24, 48, and 96 h.
(§2) Plasma proteins were precipitated by addition of acetonitrile containing internal standard (ISTD, tolbutamide) and the supernatants were analyzed semi-quantitatively by LC/MS-MS with elution on a chiral column (Daicel ChiralPak IE-3) for the separation of enantiomers (isocratic method of 20:80 v/v 0.1% acetic acid in water and acetonitrile). Peak areas for the deuterated enantiomers (+)- and (−)-3-(5-amino-2-methyl-4-oxoquinazolin-3(4H)-yl)-(3-^2H)-piperidine-2,6-dione were normalized to the ISTD and corrected for the isotopic peak of the corresponding protonated enantiomer, (+)- and (−)-3-(5-amino-2-methyl-4-oxoquinazolin-3(4H)-yl)-piperidine-2,6-dione respectively, if present. Corrected data were analyzed and plotted using Microsoft Excel 2013 (Microsoft Corp, Redmond, WA) and the Excel Solver.
(§3) Scheme 1 below illustrates the possible reactions in a solution of deuterated racemate. The deuterium in both enantiomers, d+ and d−, can be lost by D/H exchange to give both protonated enantiomers, h+ and h− with rate constants kD++, kD+−, kD−+, kD−−. At the same time, the protonated enantiomers h+ and h−, can exchange, with enantiomerization rate constants k+− and k−+. All four compounds can also degrade with potentially different degradation rate constants kh+d, kh−d, kd+d, kd−d.
(§4) Human and mouse plasma data were analyzed independently. Independent analyses of the data for h+ and h− were performed first and the average rate constants k+− and k−+ from these two fits were calculated and used as constants in the fitting of the stability data of the deuterated racemate. Calculated concentrations were obtained through numerical approximation of differential equations (1) and (2) for the stability studies of h+ and h− and equations (3) to (6) for the stability study of deuterated racemate (50:50 d+:d−) by the Euler method (equation (7)). The step between calculated time points was minimized in order to minimize the local error (proportional to the square of the step size) and the global error (proportional to the step size).
(§5) The average degradation rate constant obtained by fitting the data for h+ and h− was used in the fit of the stability data of the deuterated racemate. Data analysis was performed in Microsoft Excel 2013, using the Solver Generalized Reduced Gradient Nonlinear method with central derivatives to minimize the sum of sums of weighted Δ^2, square of difference between ISTD-normalized experimental data and calculated value, divided by the experimental data.
(§6) [formula] where [h+], [h−], [d+], [d−] are the concentrations of both protonated and deuterated enantiomers, k+− and k−+ are the rate constants for the enantiomerization reactions [h+] to [h−] and [h−] to [h+] respectively, kD++, kD+−, kD−+, and kD−− are the rate constants for the D/H exchange reactions [d+] or [d−] to [h+] or [h−], and kd is the rate constant for the degradation of all four compounds
(§7) [formula] where [X]ti is the concentration of either enantiomer at time ti, t1 is a time at which [X] is known, t2 is a time at which [X] is calculated, and [d[X]]t1 is the calculated value of the differential equation at time t1.

[2] = In vitro stability in CD-1 mouse plasma at 37° C. (enantiomerization, D/H exchange, degradation); type: in vitro ADME
Experimental: as §1, §2, §3, §4, §5, §6, §7

[3] = Pharmacokinetics after single oral gavage dose in female CB.17 SCID mice; type: in vivo; details: for AUC, compound analyzed d+ / AUC, compound analyzed d− / AUC, compound analyzed h+ / AUC, compound analyzed h−: 15 mg/kg
Experimental: Female CB.17 SCID mice (8-12 weeks of age) were administered a single dose of protonated racemate (h-rac, 30 mg/kg), d− (15 mg/kg), or d+ (15 mg/kg) by oral gavage. Deuterated enantiomers (i.e., d− and d+) used in this study contain ˜10% of the corresponding protonated enantiomer. Blood was collected into potassium EDTA (K2EDTA) containers by terminal cardiac puncture under carbon dioxide anesthesia from N=3 per group per time point at 0.25, 0.5, 1, 2, 4, 8, and 24 h post-dose. Plasma was isolated, frozen, and stored until ready for analysis.
Samples were prepared for quantitative analysis by liquid-liquid extraction in methyl-t-butylether (MTBE) with ondansetron as internal standard (ISTD). MTBE was evaporated under nitrogen flow and samples were reconstituted in 1% acetic acid in water/acetonitrile (20/80). Analysis was performed by chiral LC/MS-MS on a Daicel ChiralPak IE-3 column using an isocratic LC method of 0.1% acetic acid in water and acetonitrile (20:80 v/v). ISTD-normalized peak areas for deuterated enantiomers d- and d+ were corrected from interference from naturally occurring isotopes of the protonated analytes. Concentrations were obtained by interpolation on standard curves prepared in mouse plasma using standard solutions of the analytes.
Data was plotted in Excel 2013 (Microsoft Corp, Redmond, WA) and analyzed within Excel using the PKSolver add-in (version 2.0, as described in Zhang Y. et al Comput. Methods Programs Biomed. 99 (2010), 306-314) to determine pharmacokinetic parameters including exposure (as area under the curve, AUC) and elimination half-life (t1/2).

[4] = system: Human Multiple Myeloma H929 Cell Line; test: Efficacy in human multiple myeloma H929 xenograft in female CB.17 SCID mice; type: in vivo; details: daily oral gavage 23 days, FIG. 10; for potency/efficacy at limiting tumor growth, comparison between compounds: d− and d+ 1.5 or 15 mg/kg, h-rac 3 mg/kg
Experimental: Female CB.17 SCID mice (8-12 weeks of age, N=60) were administered 1×10^7 H929 tumor cells in 50% Matrigel subcutaneously in their flank (0.2 mL/mouse). Animals were returned to their cages and tumor growth was monitored. Tumor size was reported as tumor volume (Vol) calculated as Vol=½ (L*W^2), where L and W are the length and width of the tumor as measured by caliper (L>W). A pair match was performed when tumors reached an average size of 100-150 mm^3 and the animals were divided into 6 treatment groups of N=10 animals each.
Animals were treated daily by oral gavage (10 mL/kg) with vehicle, d− (1.5 or 15 mg/kg), d+ (1.5 or 15 mg/kg), or h-rac (racemic mixture of protonated enantiomers h− and h+; 3 mg/kg). The compound h-rac was administered at twice the dose of the deuterated enantiomers since it contains 50% (i.e., 1.5 mg/kg) of each enantiomer. Body weight measurements were taken daily for the first week then biweekly. Tumor sizes were measured by caliper biweekly. The study was terminated after 23 days of dosing, then all animals were euthanized.

[5] = human plasma, 37° C., fit to equations 1 to 6
[6] = human plasma, 37° C., average of values for h− and h+
[7] = mouse plasma, 37° C., fit to equations 1 to 6
[8] = mouse plasma, 37° C., average of values for h− and h+
[9] = mouse plasma, single oral gavage 15 mg/kg

3-(5-amino-2-methyl-4-oxoquinazolin-3(4H)-yl)-(3-^2H)-piperidine-2,6-dione [d-rac]
Calculated half-life t1/2, D/H exchange of d+ (D++ and D+−) ([1]; human plasma, 37° C.): 8.3 h | Calculated half-life t1/2, D/H exchange of d− (D−+ and D−−) ([1]; human plasma, 37° C.): 5.2 h | Calculated half-life t1/2, degradation d ([1]; human plasma, 37° C.): 7.8 h | Calculated half-life t1/2, enantiomerization +− ([1]; human plasma, 37° C.): 2.6 h | Calculated half-life t1/2, enantiomerization −+ ([1]; human plasma, 37° C.): 3.6 h | k D++ (rate constant D/H exchange d+ to h+) [1, 5]: 2.33e-05 s⁻¹ | k D+− (rate constant D/H exchange d+ to h−) [1, 5]: 0 s⁻¹ | k D−+ (rate constant D/H exchange d− to h+) [1, 5]: 0 s⁻¹ | k D−− (rate constant D/H exchange d− to h−) [1, 5]: 3.72e-05 s⁻¹ | k +− (enantiomerization rate constant used in analysis of d-rac) [1, 6]: 0.264 h⁻¹ | k d (degradation rate constant for the enantiomers of d-rac) [1, 6]: 2.51e-05 s⁻¹ | k −+ (enantiomerization rate constant used in analysis of d-rac) [1, 6]: 0.195 h⁻¹ | Calculated half-life t1/2, D/H exchange of d+ (D++ and D+−) ([2]; mouse plasma, 37° C.): 14.5 h | Calculated half-life t1/2, D/H exchange of d− (D−+ and D−−) ([2]; mouse plasma, 37° C.): 12.7 h | Calculated half-life t1/2, degradation d ([2]; mouse plasma, 37° C.): 13.0 h | Calculated half-life t1/2, enantiomerization +− ([2]; mouse plasma, 37° C.): 10.5 h | Calculated half-life t1/2, enantiomerization −+ ([2]; mouse plasma, 37° C.): 7.2 h | k D++ (rate constant D/H exchange d+ to h+) [2, 7]: 1.29e-05 s⁻¹ | k D+− (rate constant D/H exchange d+ to h−) [2, 7]: 3.03e-07 s⁻¹ | k D−+ (rate constant D/H exchange d− to h+) [2, 7]: 4.61e-06 s⁻¹ | k D−− (rate constant D/H exchange d− to h−) [2, 7]: 1.06e-05 s⁻¹ | k +− (enantiomerization rate constant used in analysis of d-rac) [2, 8]: 0.0662 h⁻¹ | k d (degradation rate constant for the enantiomers of d-rac) [2, 8]: 1.48e-05 s⁻¹ | k −+ (enantiomerization rate constant used in analysis of d-rac) [2, 8]: 0.0959 h⁻¹

[2H]C1(n2c(C)nc3cccc(N)c3c2=O)CCC(=O)NC1=O (single isomer, unassigned; (+)) [d+, (+)-3-(5-Amino-2-methyl-4-oxoquinazolin-3(4H)-yl)-(3-^2H)-piperidine-2,6-dione]
t1/2, compound analyzed d+ [3, 9]: 1.1 h | t1/2, compound analyzed h+ [3, 9]: 1.0 h | AUC, compound analyzed d+ [3, 9]: 63600 ng·h/mL | AUC, compound analyzed d− [3, 9]: 661 ng·h/mL | AUC, compound analyzed h+ [3, 9]: 6120 ng·h/mL | AUC, compound analyzed h− [3, 9]: 993 ng·h/mL | efficacy (tumor volume) by dose ([4]; 1.5 or 15 mg/kg): observed only at the highest dose | potency/efficacy at limiting tumor growth, comparison between compounds [4]: less efficacious than d−

Cc1nc2cccc(N)c2c(=O)n1C1CCC(=O)NC1=O (single isomer, unassigned; (+)) [h+, (+)-3-(5-amino-2-methyl-4-oxoquinazolin-3(4H)-yl)-piperidine-2,6-dione, reference compound]
k +− (enantiomerization rate constant h+ to h−) ([1]; human): 0.297 h⁻¹ | k d (degradation rate constant) ([1]; human): 2.68e-05 s⁻¹ | k −+ (enantiomerization rate constant h− to h+) ([1]; human): 0.220 h⁻¹ | Calculated half-life t1/2, degradation d ([1]; human, plasma): 7.2 h | Calculated half-life t1/2, enantiomerization +− ([1]; human, plasma): 2.3 h | half-life ([1]; human, plasma, Calculated half-life t1/2, enantiomerization −+): 3.2 h | k +− (enantiomerization rate constant h+ to h−) ([2]; CD-1, mouse): 0.0603 h⁻¹ | k d (degradation rate constant) ([2]; CD-1, mouse): 1.45e-05 s⁻¹ | k −+ (enantiomerization rate constant h− to h+) ([2]; CD-1, mouse): 0.119 h⁻¹ | Calculated half-life t1/2, degradation d ([2]; CD-1, mouse, plasma): 13.3 h | Calculated half-life t1/2, enantiomerization +− ([2]; CD-1, mouse, plasma): 11.5 h | Calculated half-life t1/2, enantiomerization −+ ([2]; CD-1, mouse, plasma): 5.8 h

[2H]C1(n2c(C)nc3cccc(N)c3c2=O)CCC(=O)NC1=O (single isomer, unassigned; (-)) [d−, (−)-3-(5-Amino-2-methyl-4-oxoquinazolin-3(4H)-yl)-(3-^2H)-piperidine-2,6-dione]
t1/2, compound analyzed d− [3, 9]: 1.2 h | t1/2, compound analyzed h− [3, 9]: 1.2 h | AUC, compound analyzed d+ [3, 9]: 898 ng·h/mL | AUC, compound analyzed d− [3, 9]: 44100 ng·h/mL | AUC, compound analyzed h+ [3, 9]: 1180 ng·h/mL | AUC, compound analyzed h− [3, 9]: 6160 ng·h/mL | potency/efficacy at limiting tumor growth, comparison between compounds [4]: more potent at limiting tumor growth at both doses than h-rac

Cc1nc2cccc(N)c2c(=O)n1C1CCC(=O)NC1=O (single isomer, unassigned; (-)) [h−, (−)-3-(5-amino-2-methyl-4-oxoquinazolin-3(4H)-yl)-piperidine-2,6-dione, reference compound]
k +− (enantiomerization rate constant h+ to h−) ([1]; human): 0.231 h⁻¹ | k d (degradation rate constant) ([1]; human): 2.35e-05 s⁻¹ | k −+ (enantiomerization rate constant h− to h+) ([1]; human): 0.169 h⁻¹ | half-life ([1]; human, plasma, Calculated half-life t1/2, degradation d): 8.2 h | half-life ([1]; human, plasma, Calculated half-life t1/2, enantiomerization +−): 3 h | share of the total exposure ([3]; mice, exposure to the enantiomers of the protonated molecule (h-rac dosed)): 39% | k +− (enantiomerization rate constant h+ to h−) ([2]; CD-1, mouse): 0.0722 h⁻¹ | k d (degradation rate constant) ([2]; CD-1, mouse): 1.51e-05 s⁻¹ | k −+ (enantiomerization rate constant h− to h+) ([2]; CD-1, mouse): 0.0730 h⁻¹ | half-life ([2]; CD-1, mouse, plasma, Calculated half-life t1/2, degradation d): 12.7 h | half-life ([2]; CD-1, mouse, plasma, Calculated half-life t1/2, enantiomerization +−): 9.6 h | half-life ([2]; CD-1, mouse, plasma, Calculated half-life t1/2, enantiomerization −+): 9.5 h
